Laboratory results: ChEMBL document CHEMBL1201862, “PubChem BioAssay data set” (2004)
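Compound exposure: 48 hours, 5 concentrations, 96-well plates. Abbreviation: GI50, concentration required for 50% inhibition of growth.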 Active and inactive are the calls of the source. No stated cut-off is given here; in the data, active = GI50 up to about 1.1 µM and inactive = higher.

Legend:
Assay in all cases: NCI-60 cell line screen, 48 h
786-0 = test system: 786-0
A498 = test system: A498
A549 = test system: A549
ACHN = test system: ACHN
CCRF-CEM = test system: CCRF-CEM
COLO 205 = test system: COLO 205
DLD-1 = test system: DLD-1
DMS-114 = test system: DMS-114
DMS-273 = test system: DMS-273
EKVX = test system: EKVX
HCC 2998 = test system: HCC 2998
HCT-116 = test system: HCT-116
HCT-15 = test system: HCT-15
HL-60 = test system: HL-60
HOP-18 = test system: HOP-18
HOP-62 = test system: HOP-62
HT-29 = test system: HT-29
IGROV-1 = test system: IGROV-1
K562 = test system: K562
KM-20L2 = test system: KM-20L2
KM12 = test system: KM12
LOX IMVI = test system: LOX IMVI
LXFL 529 = test system: LXFL 529
M14 = test system: M14
M19-MEL = test system: M19-MEL
MOLT-4 = test system: MOLT-4
Malme-3M = test system: Malme-3M
NCI-H226 = test system: NCI-H226
NCI-H23 = test system: NCI-H23
NCI-H460 = test system: NCI-H460
NCI-H522 = test system: NCI-H522
OVCAR-3 = test system: OVCAR-3
OVCAR-4 = test system: OVCAR-4
OVCAR-5 = test system: OVCAR-5
OVCAR-8 = test system: OVCAR-8
RXF 393 = test system: RXF 393
RXF 631 = test system: RXF 631
SF-268 = test system: SF-268
SF-539 = test system: SF-539
SK-MEL-28 = test system: SK-MEL-28
SK-MEL-2 = test system: SK-MEL-2
SK-MEL-5 = test system: SK-MEL-5
SK-OV-3 = test system: SK-OV-3
SN12C = test system: SN12C
SNB-19 = test system: SNB-19
SNB-75 = test system: SNB-75
SNB-78 = test system: SNB-78
SW-620 = test system: SW-620
TK-10 = test system: TK-10
U-251 = test system: U-251
UACC-257 = test system: UACC-257
UACC-62 = test system: UACC-62
UO-31 = test system: UO-31
CAKI-1 = test system: CAKI-1
RPMI-8226 = test system: RPMI-8226
SF-295 = test system: SF-295
HOP-92 = test system: HOP-92
SR = test system: SR

CC(=O)SC(SC(C)=O)SC(C)=O
GI50 (786-0): > 100 µM (inactive)
GI50 (A498): > 100 µM (inactive)
GI50 (A549): 37.2 µM (inactive)
GI50 (ACHN): > 100 µM (inactive)
GI50 (CCRF-CEM): 22.5 µM (inactive)
GI50 (COLO 205): 27.3 µM (inactive)
GI50 (DLD-1): > 100 µM (inactive)
GI50 (DMS-114): 31.1 µM (inactive)
GI50 (DMS-273): > 100 µM (inactive)
GI50 (EKVX): > 100 µM (inactive)
GI50 (HCC 2998): > 100 µM (inactive)
GI50 (HCT-116): > 100 µM (inactive)
GI50 (HCT-15): 53.2 µM
GI50 (HL-60): 51.3 µM (inactive)
GI50 (HOP-18): > 100 µM (inactive)
GI50 (HOP-62): > 100 µM (inactive)
GI50 (HT-29): 24.7 µM (inactive)
GI50 (IGROV-1): > 100 µM (inactive)
GI50 (K562): 54.5 µM (inactive)
GI50 (KM-20L2): > 100 µM (inactive)
GI50 (KM12): > 100 µM (inactive)
GI50 (LOX IMVI): 58.5 µM (inactive)
GI50 (LXFL 529): 51.8 µM (inactive)
GI50 (M14): > 100 µM (inactive)
GI50 (M19-MEL): > 100 µM (inactive)
GI50 (MOLT-4): 43.9 µM (inactive)
GI50 (Malme-3M): > 100 µM (inactive)
GI50 (NCI-H226): > 100 µM (inactive)
GI50 (NCI-H23): > 100 µM (inactive)
GI50 (NCI-H460): > 100 µM (inactive)
GI50 (NCI-H522): 20.7 µM (inactive)
GI50 (OVCAR-3): 91 µM (inactive)
GI50 (OVCAR-4): > 100 µM (inactive)
GI50 (OVCAR-5): > 100 µM (inactive)
GI50 (OVCAR-8): > 100 µM (inactive)
GI50 (RXF 393): > 100 µM (inactive)
GI50 (RXF 631): > 100 µM (inactive)
GI50 (SF-268): > 100 µM (inactive)
GI50 (SF-539): > 100 µM (inactive)
GI50 (SK-MEL-28): > 100 µM (inactive)
GI50 (SK-MEL-2): > 100 µM (inactive)
GI50 (SK-MEL-5): > 100 µM (inactive)
GI50 (SK-OV-3): > 100 µM (inactive)
GI50 (SN12C): > 100 µM (inactive)
GI50 (SNB-19): > 100 µM (inactive)
GI50 (SNB-75): 60.3 µM (inactive)
GI50 (SNB-78): > 100 µM (inactive)
GI50 (SW-620): > 100 µM (inactive)
GI50 (TK-10): > 100 µM (inactive)
GI50 (U-251): > 100 µM (inactive)
GI50 (UACC-257): 55 µM (inactive)
GI50 (UACC-62): 84.1 µM (inactive)
GI50 (UO-31): > 100 µM (inactive)

CC(C)C(Nc1c2ccccc2[n+]([O-])c2ccccc12)C(=O)O (stereo not given)
GI50 (786-0): > 100 µM (inactive)
GI50 (A498): > 100 µM (inactive)
GI50 (A549): > 100 µM (inactive)
GI50 (ACHN): 35.2 µM (inactive)
GI50 (CAKI-1): > 100 µM (inactive)
GI50 (CCRF-CEM): 47.8 µM (inactive)
GI50 (COLO 205): 52.5 µM (inactive)
GI50 (DLD-1): 37.7 µM (inactive)
GI50 (DMS-114): 36.2 µM (inactive)
GI50 (DMS-273): 61.9 µM (inactive)
GI50 (EKVX): > 100 µM (inactive)
GI50 (HCC 2998): > 100 µM (inactive)
GI50 (HCT-116): 44.6 µM (inactive)
GI50 (HCT-15): 45.9 µM
GI50 (HL-60): 26.2 µM (inactive)
GI50 (HOP-18): 19.4 µM (inactive)
GI50 (HOP-62): > 100 µM (inactive)
GI50 (HT-29): > 100 µM (inactive)
GI50 (IGROV-1): > 100 µM (inactive)
GI50 (K562): 38.5 µM (inactive)
GI50 (KM-20L2): > 100 µM (inactive)
GI50 (KM12): > 100 µM (inactive)
GI50 (LOX IMVI): 50.9 µM (inactive)
GI50 (LXFL 529): 32.4 µM (inactive)
GI50 (M14): 91.2 µM (inactive)
GI50 (M19-MEL): 88.5 µM (inactive)
GI50 (MOLT-4): 10 µM (inactive)
GI50 (Malme-3M): 28.1 µM (inactive)
GI50 (NCI-H226): 35.6 µM (inactive)
GI50 (NCI-H23): 36 µM (inactive)
GI50 (NCI-H460): > 100 µM (inactive)
GI50 (NCI-H522): 81.3 µM (inactive)
GI50 (OVCAR-3): > 100 µM (inactive)
GI50 (OVCAR-4): 65.8 µM (inactive)
GI50 (OVCAR-5): > 100 µM (inactive)
GI50 (OVCAR-8): 53.2 µM (inactive)
GI50 (RPMI-8226): 19.7 µM (inactive)
GI50 (RXF 631): > 100 µM (inactive)
GI50 (SF-268): 55.3 µM (inactive)
GI50 (SF-295): > 100 µM (inactive)
GI50 (SK-MEL-28): 43.1 µM (inactive)
GI50 (SK-MEL-2): 84.9 µM (inactive)
GI50 (SK-MEL-5): 34.2 µM (inactive)
GI50 (SK-OV-3): > 100 µM (inactive)
GI50 (SN12C): 61.1 µM (inactive)
GI50 (SNB-19): > 100 µM (inactive)
GI50 (SNB-75): 58.9 µM (inactive)
GI50 (SNB-78): > 100 µM (inactive)
GI50 (SW-620): > 100 µM (inactive)
GI50 (TK-10): > 100 µM (inactive)
GI50 (U-251): > 100 µM (inactive)
GI50 (UACC-257): 66.2 µM (inactive)
GI50 (UACC-62): 57.3 µM (inactive)
GI50 (UO-31): 55.5 µM (inactive)

Cc1c(Cl)cccc1NC(=O)C(=O)C1C(=O)CC(C)(C)CC1=O
GI50 (786-0): > 100 µM (inactive)
GI50 (A498): > 100 µM (inactive)
GI50 (A549): > 100 µM (inactive)
GI50 (ACHN): > 100 µM (inactive)
GI50 (CAKI-1): > 100 µM (inactive)
GI50 (CCRF-CEM): > 100 µM (inactive)
GI50 (COLO 205): > 100 µM (inactive)
GI50 (DLD-1): > 100 µM (inactive)
GI50 (DMS-114): > 100 µM (inactive)
GI50 (DMS-273): > 100 µM (inactive)
GI50 (EKVX): > 100 µM (inactive)
GI50 (HCC 2998): > 100 µM (inactive)
GI50 (HCT-116): > 100 µM (inactive)
GI50 (HCT-15): > 100 µM
GI50 (HL-60): > 100 µM (inactive)
GI50 (HOP-18): > 100 µM (inactive)
GI50 (HOP-62): > 100 µM (inactive)
GI50 (HOP-92): > 100 µM (inactive)
GI50 (HT-29): > 100 µM (inactive)
GI50 (IGROV-1): > 100 µM (inactive)
GI50 (K562): > 100 µM (inactive)
GI50 (KM-20L2): > 100 µM (inactive)
GI50 (KM12): > 100 µM (inactive)
GI50 (LOX IMVI): > 100 µM (inactive)
GI50 (LXFL 529): > 100 µM (inactive)
GI50 (M14): > 100 µM (inactive)
GI50 (M19-MEL): > 100 µM (inactive)
GI50 (MOLT-4): > 100 µM (inactive)
GI50 (Malme-3M): > 100 µM (inactive)
GI50 (NCI-H226): > 100 µM (inactive)
GI50 (NCI-H23): > 100 µM (inactive)
GI50 (NCI-H460): > 100 µM (inactive)
GI50 (NCI-H522): > 100 µM (inactive)
GI50 (OVCAR-3): > 100 µM (inactive)
GI50 (OVCAR-4): > 100 µM (inactive)
GI50 (OVCAR-5): > 100 µM (inactive)
GI50 (OVCAR-8): > 100 µM (inactive)
GI50 (RPMI-8226): > 100 µM (inactive)
GI50 (RXF 393): > 100 µM (inactive)
GI50 (RXF 631): > 100 µM (inactive)
GI50 (SF-268): > 100 µM (inactive)
GI50 (SF-295): > 100 µM (inactive)
GI50 (SF-539): > 100 µM (inactive)
GI50 (SK-MEL-28): > 100 µM (inactive)
GI50 (SK-MEL-2): > 100 µM (inactive)
GI50 (SK-MEL-5): > 100 µM (inactive)
GI50 (SK-OV-3): > 100 µM (inactive)
GI50 (SN12C): > 100 µM (inactive)
GI50 (SNB-19): > 100 µM (inactive)
GI50 (SNB-75): > 100 µM (inactive)
GI50 (SNB-78): > 100 µM (inactive)
GI50 (SR): > 100 µM (inactive)
GI50 (SW-620): > 100 µM (inactive)
GI50 (TK-10): > 100 µM (inactive)
GI50 (U-251): > 100 µM (inactive)
GI50 (UACC-257): > 100 µM (inactive)
GI50 (UACC-62): > 100 µM (inactive)
GI50 (UO-31): > 100 µM (inactive)
